{
  "source": "paper PMC11984905",
  "about": "“Chiral Switch of Gadopiclenol: New Standards in MRI Probes” (Advanced Science, 2025)",
  "assay": "Relaxivity at 21 / 400 MHz and 25 °C in 0.15 M NaCl",
  "assay_type": "physicochemical",
  "settings": "0.15 M NaCl",
  "description": "The relaxivity values were calculated from the longitudinal relaxation time of H2O protons (T 1) measured at 21 MHz on a Stelar relaxometer connected to a Bruker WP80 NMR electromagnet adapted to variable‐field measurements (15−80 MHz proton Larmor frequency). The temperature of the sample holder was controlled with a thermostatted air stream. The longitudinal relaxation time was measured with the “inversion recovery” method (180° – τ – 90°) by using 12 different τ values with typical 90° pulse width of 6.4 µs, 4 scans. The measurements were performed with 1 mM solution of the Gd(III)‐complexes with rac‐L1, ent‐L1, rac‐L2, and ent‐L2 ligands, so the relaxivity values were given as r 1 = […] where T 1p and T 1w were the relaxation time of bulk water protons in the presence and absence of paramagnetic species, respectively. The variable pH relaxivity measurements of Gd(III)‐complexes with rac‐L1, ent‐L1, rac‐L2, and ent‐L2 ligands could be carried out by direct titration of the samples in the pH range 2.5–9.0 (21 MHz, 25 °C, 0.15 M NaCl). The pH was adjusted by stepwise addition of concentrated NaOH or HCl solution.\nThe stability constant of Gd(III)‐complexes with rac‐L2 and ent‐L2 ligands were determined by the measurement of the proton relaxation rates (r 1) studying the competition reaction of rac‐L2 and ent‐L2 ligands with AAZTA for Gd(III) ion at pH = 4.0 in 0.15 M NaCl solution. In these experiments, the concentration of Gd^3+, rac‐L2, and ent‐L2 ligands was 2.0 mM, while that of the AAZTA was varied between 1.0 and 6.0 mM (5 × 1.5 mL samples). The pH was adjusted to pH 4.0 by stepwise addition of concentrated NaOH or HCl solutions. The samples were kept at 70 °C for a month and then at 25°C for two months in order to attain the equilibrium (the time needed to reach the equilibria was determined by ^1H‐NMR relaxometry). ^1H‐NMR relaxometric measurement of Gd(III) – rac‐L2 – AAZTA and Gd(III) – ent‐L2 – AAZTA systems were performed with a Bruker Avance III 400 (9.4 T) equipped with BB inverse z gradient probe (5 mm). The longitudinal relaxation time (T 1) was measured with the “inversion recovery” method (180° – τ – 90°) by using 12 different τ values with typical 90° pulse width of 12.0 µs, 4 scans at 298 K. The stability constants of [Gd(rac‐L2)] and [Gd(ent‐L2)] complexes were calculated by considering the protonation constants of AAZTA ligand and the stability constant of [Gd(AAZTA)]^− complex (AAZTA: logK 1 ^H = 10.06, logK 2 ^H = 6.50, logK 3 ^H = 3.77, logK 4 ^H = 2.33, logK 5 ^H = 1.51; [Gd(AAZTA)]^−: logK GdL = 18.93, 0.15 M NaCl, 25 °C).^[ [47] ^] The equilibrium constants were calculated with the program PSEQUAD.^[ [48] ^]",
  "data": [
    {"smiles": "O=C(CCC(C(=O)O)N1CCN(C(CCC(=O)NCC(O)CO)C(=O)O)Cc2cccc(n2)CN(C(CCC(=O)NCC(O)CO)C(=O)O)CC1)NCC(O)CO", "note": "(racemic) [rac‐L2]", "values": [
      {"measurement": "Relaxivity of GdL species", "setting": "21 MHz", "result": "14.8 ± 0.1", "unit": "mM⁻¹ s⁻¹"},
      {"measurement": "Relaxivity of GdL species", "setting": "400 MHz", "result": "10.8 ± 0.1", "unit": "mM⁻¹ s⁻¹"}
    ]},
    {"smiles": "O=C(CCC(C(=O)O)N1CCN(C(CCC(=O)NCC(O)CO)C(=O)O)Cc2cccc(n2)CN(C(CCC(=O)NCC(O)CO)C(=O)O)CC1)NCC(O)CO", "note": "(stereo not drawn) [ent‐L2]", "values": [
      {"measurement": "Relaxivity of GdL species", "setting": "21 MHz", "result": "16.2 ± 0.1", "unit": "mM⁻¹ s⁻¹"},
      {"measurement": "Relaxivity of GdL species", "setting": "400 MHz", "result": "11.8 ± 0.1", "unit": "mM⁻¹ s⁻¹"}
    ]},
    {"smiles": "O=C(O)CCC(C(=O)O)N1CCN(C(CCC(=O)O)C(=O)O)Cc2cccc(n2)CN(C(CCC(=O)O)C(=O)O)CC1", "note": "(racemic) [rac‐L1, 2,2’,2’’-[3,6,9,15-tetraazabicyclo[9.3.1]pentadeca-1(15),11,13-triene-3,6,9-triyl]tripentanedioic acid]", "values": [
      {"measurement": "Relaxivity of GdH2L species", "setting": "21 MHz", "result": "9.61 ± 0.06", "unit": "mM⁻¹ s⁻¹"},
      {"measurement": "Relaxivity of GdH3L species", "setting": "21 MHz", "result": "10.1 ± 0.1", "unit": "mM⁻¹ s⁻¹"},
      {"measurement": "Relaxivity of GdH4L species", "setting": "21 MHz", "result": "11.7 ± 0.1", "unit": "mM⁻¹ s⁻¹"},
      {"measurement": "Relaxivity of GdHL species", "setting": "21 MHz", "result": "9.61 ± 0.06", "unit": "mM⁻¹ s⁻¹"},
      {"measurement": "Relaxivity of GdL species", "setting": "21 MHz", "result": "9.61 ± 0.06", "unit": "mM⁻¹ s⁻¹"}
    ]},
    {"smiles": "O=C(O)CCC(C(=O)O)N1CCN(C(CCC(=O)O)C(=O)O)Cc2cccc(n2)CN(C(CCC(=O)O)C(=O)O)CC1", "note": "(stereo not drawn) [ent‐L1]", "values": [
      {"measurement": "Relaxivity of GdH2L species", "setting": "21 MHz", "result": "12.2 ± 0.2", "unit": "mM⁻¹ s⁻¹"},
      {"measurement": "Relaxivity of GdH3L species", "setting": "21 MHz", "result": "11.8 ± 0.1", "unit": "mM⁻¹ s⁻¹"},
      {"measurement": "Relaxivity of GdHL species", "setting": "21 MHz", "result": "12.1 ± 0.1", "unit": "mM⁻¹ s⁻¹"},
      {"measurement": "Relaxivity of GdL species", "setting": "21 MHz", "result": "12.9 ± 0.1", "unit": "mM⁻¹ s⁻¹"}
    ]}
  ]
}
